From patent US20200316096A1, “COMBINATION OF DIET AND DRUG THERAPY FOR TREATING CANCER” (Trustees of Boston College, priority 2019, published 2020)

Tested on: VM-M3 tumour
Assay: VM-M3 orthotopic GBM model: bioluminescence imaging and survival
Type: in vivo, mouse (VM/Dk)
Description: FIGS. 1A-1F. Restricted Ketogenic diet with DON reduces progression and mortality of the VM-M3 GBM. VM/Dk inbred mice were implanted orthotopically with a small (1.0 mm×1.0 mm) tissue fragment from the VM-M3 tumour on day 0. The implanted mice were divided into two groups on day 4 and were fed either; a standard chow diet unrestricted or ad-libitum (SD-UR), or a ketogenic diet (KD-R) in restricted amounts to reduce body weight by about 15%. DON (0.1-1.0 mg/kg) was injected i.p. 7 days following orthotopic tumour implantation. […] 1A. All mice were imaged in-vivo and terminated on day 14 or 15 when all control mice appeared moribund (experiments 1 & 2). For experiment 1, bioluminescence was scored from 0-4, following the administration of lower doses of DON (0.1 and 0.5 mg/kg). Values are expressed as the mean+/−SEM and a one-way analysis of variance followed by Tukey's post hoc test was performed to determine the significance between groups, FIG. 1B. In experiment 2, in-vivo bioluminescent photon values were obtained following the administration of DON (1.0 mg/kg) in mice under the KD-R, FIG. 1C. The average in-vivo bioluminescent photon values were calculated for the KD-R (n=4) and KD-R+DON (n=8) mice in experiment 2. Values are presented as the mean+/−SEM and the P value was calculated using a two-tailed student's t-test, FIG. 1D. in-vivo bioluminescent images of 3 representative mice from both study groups in experiment 2 are shown, FIG. 1E. For experiment 3, a survival study was performed, and a Kaplan Meier survival plot was configured for SD-UR (n=15), SD-UR+DON (n=10), KD-R (n=10), and KD-R+DON (n=10), FIG. 1F.
FIGS. 2A-2C. Restricted Ketogenic diet with DON reduces VM-M3 GBM bioluminescence. VM/Dk mice were implanted with a VM-M3 tumour as described in the previous figures. Mouse brains were imaged ex-vivo on day 14 or 15. Mice were imaged ex-vivo after in-vivo bioluminescent imaging, as described in the previous figures. Individual ex-vivo bioluminescent photon values were measured following the administration of DON (1.0 mg/kg) in KD-R mice, FIG. 2A. From the individual measurements, the average ex-vivo bioluminescent photon value was calculated for both the KD-R (n=6) and KD-R+DON (n=8) mouse groups. Values are presented as the mean+/−SEM and significance of differences was determined following a two-tailed student's t-test, FIG. 2B. ex-vivo bioluminescent images of brains from representative mice in experiment 2 are shown in comparison to SD-UR, FIG. 2C.
To observe the effect of the KD-R and DON on the VM-M3 tumour model, three consecutive experiments were conducted. Experiment 1 included four groups (SD-UR; SD-UR+DON; KDR; KDR+DON) with lower DON dosages (0.1 and 0.5 mg/kg). Experiment 2 involved both in-vivo and ex-vivo imaging of two study groups (KD-R and KD-R+DON) following the administration of a higher dose of DON (1.0 mg/kg). Experiment 3, a survival study, also used the higher DON dose (1.0 mg/kg) and included the four groups from Experiment 1 (SD-UR; SD-UR+DON; KDR; KDR+DON) ( ).
The KD-R+DON treatment was performed as outlined in the study timeline (FIG. 1A). In experiment 1, two doses of DON (0.1 and 0.5 mg/kg) were used in both the SD-UR and KD-R groups (FIG. 1B). d-luciferin was injected i.p. 15 days after tumour implantation, and in-vivo bioluminescence imaging was performed. The total VM-M3 tumour bioluminescence photon values were scored from 0 to 4, with 0 being the baseline value and 4 being the highest value.
Experiment 2 involved a larger number of mice that were treated with a higher dose of DON (1.0 mg/kg). Due to the observed synergy between the KD-R and DON in experiment 1, only the KD-R group was selected for further experiments. All mice in this experiment expressed a significant amount of tumour burden as observed by in-vivo imaging on day 7 (data not shown). […] All untreated SD-UR control mice died between day 15 and 18. […]

[N-]=[N+]=CC(=O)CC[C@H](N)C(=O)O [DON, 6-diazo-5-oxo-L-norleucine]
reduction in tumour growth (DON 0.5 mg/kg once or twice per week, bioluminescent imaging): 60 to 70%
resolution of the brain tumour (DON 1.0 mg/kg, same schedule, bioluminescent imaging): near complete resolution
lower photon value compared to control SD-UR group (experiment 1, DON 0.1 and 0.5 mg/kg, in-vivo bioluminescence day 15): 44%
average ex-vivo photon value (experiment 2, DON 1.0 mg/kg, FIG. 2B): significant reduction
mice with baseline value of in-vivo bioluminescence (experiment 2, KD-R fed mice, DON 1.0 mg/kg, day 14 or 15): 7 out of the 8
individual ex-vivo bioluminescent values (experiment 2, KD-R fed mice, DON 1.0 mg/kg, resected brains): below the baseline value
average in-vivo photon value (experiment 2, KD-R fed mice, DON 1.0 mg/kg, versus KD-R): significant reduction
